Literature values as cited in US20030008014A1, “Truncated apolipoprotein B-containing lipoprotein particles for delivery of compounds to tissues or cells” (priority 2001, published 2003).

Tests used:
breast tumor xenografts = details: two 10 mg/kg injections on days 1 and 4

| Structure (SMILES) | solubility in phospholipid disks [mole %] | inhibition of tumor growth (breast tumor xenografts) |
| --- | --- | --- |
| CC(C)CCC[C@@H](C)[C@H]1CC[C@H]2[C@@H]3CC=C4C[C@@H](O)CC[C@]4(C)[C@H]3CC[C@]12C [Free cholesterol, cholesterol] | ~30 |  |
| CC(=O)O[C@H]1C(=O)[C@@]2(C)[C@H]([C@H](OC(=O)c3ccccc3)[C@]3(O)C[C@H](OC(=O)[C@H](O)[C@@H](NC(=O)c4ccccc4)c4ccccc4)C(C)=C1C3(C)C)[C@]1(OC(C)=O)CO[C@@H]1C[C@@H]2O [paclitaxel] |  | maximal inhibition of tumor growth |
